Assay results taken from US6153651A, “Ortho-substituted benzoylguanidines, process for their preparation, their use as a medicament or diagnostic, and medicament comprising them” (Hoechst Aktiengesellschaft, priority 1996, dated 2000).
Counter-ions that a name gives are not always drawn.

The molecules below were run against T1, rabbit erythrocyte Na^+ /H^+ exchanger (Oryctolagus cuniculus, UniProt P23791) (assay: Inhibition of the rabbit erythrocyte Na^+ /H^+ exchanger (amiloride-sensitive Na^+ influx, flame photometry)). Conditions: erythrocytes of rabbits fed 2% cholesterol for six weeks; pH 7.4, 37° C., hyperosmolar salt/sucrose medium.
T1 construct: endogenous in cells; host or cells: rabbit erythrocytes (whole heparinized blood of cholesterol-fed New Zealand White rabbits, Ivanovas)
T1 sequence (P23791 whole entry): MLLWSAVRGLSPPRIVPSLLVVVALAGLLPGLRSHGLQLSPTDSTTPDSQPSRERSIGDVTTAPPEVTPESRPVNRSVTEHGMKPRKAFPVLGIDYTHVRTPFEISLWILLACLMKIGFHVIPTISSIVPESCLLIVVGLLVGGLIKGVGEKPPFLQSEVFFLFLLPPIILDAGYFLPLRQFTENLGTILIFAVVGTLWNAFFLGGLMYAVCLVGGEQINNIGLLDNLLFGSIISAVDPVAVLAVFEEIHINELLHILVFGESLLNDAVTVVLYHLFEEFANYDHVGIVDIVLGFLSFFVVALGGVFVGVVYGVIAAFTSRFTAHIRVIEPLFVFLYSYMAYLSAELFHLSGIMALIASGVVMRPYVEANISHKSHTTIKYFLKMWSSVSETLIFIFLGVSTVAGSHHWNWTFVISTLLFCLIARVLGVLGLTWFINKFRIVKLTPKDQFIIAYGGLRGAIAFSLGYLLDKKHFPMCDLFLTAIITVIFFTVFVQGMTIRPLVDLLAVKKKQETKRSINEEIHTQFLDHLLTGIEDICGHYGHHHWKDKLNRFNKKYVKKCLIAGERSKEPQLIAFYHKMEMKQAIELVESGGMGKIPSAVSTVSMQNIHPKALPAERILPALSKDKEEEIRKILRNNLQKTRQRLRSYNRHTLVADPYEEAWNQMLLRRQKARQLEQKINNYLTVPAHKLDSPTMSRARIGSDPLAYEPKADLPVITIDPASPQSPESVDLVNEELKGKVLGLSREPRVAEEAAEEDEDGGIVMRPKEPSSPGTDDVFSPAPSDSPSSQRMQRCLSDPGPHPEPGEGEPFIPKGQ
Assay type: cell-based, rabbit (New Zealand White)
Description: Inhibition of the rabbit erythrocyte Na^+ /H^+ exchanger New Zealand White rabbits (Ivanovas) were given a standard diet containing 2% cholesterol for six weeks in order to activate Na^+ /H^+ exchange and thus render it possible to use flame photometry to determine the influx of Na+into the erythrocytes by way of Na^+ /H^+ exchange. The blood was withdrawn from the aural arteries and rendered incoagulable by adding 25 IU of potassium heparin. A part of each sample was used for determining the hematocrit in duplicate by means of centrifugation. Aliquots of in each case 100 μl were used to measure the initial content of Na^+ in the erythrocytes.
In order to determine the amiloride-sensitive sodium influx, 100 μl of each blood sample were in each case incubated, at pH 7.4 and 37° C., in 5 ml of a hyperosmolar salt/sucrose medium (mmol/l: 140 NaCl, 3 KCl, 150 sucrose, 0.1 ouabain, 20 tris(hydroxymethyl)aminomethane). After that, the erythrocytes were washed three times with an ice cold solution of MgCl2 /ouabain (mmol/l: 112 MgCl2, 0.1 ouabain) and hemolyzed in 2.0 ml of distilled water. The intracellular content of sodium was determined by flame photometry.
The net influx of Na^+ was calculated from the difference between the initial sodium values and the sodium content of the erythrocytes after incubation. The amiloride-inhibitable sodium influx was obtained from the difference in the sodium content of the erythrocytes after incubation with and without 3×10^-4 mol/l amiloride. The same procedure was used in the case of the novel compounds.

Which IC50 does the source give for `COc1cc(C(F)(F)F)cc(C(=O)N=C(N)N)c1OC` [Example 1, 2,3-Dimethoxy-5-trifluoromethylbenzoylguanidine hydrochloride] here?
The IC50 was 53 nM.

With `COc1c(I)cc(C(F)(F)F)cc1C(=O)N=C(N)N` [Example 2, 2-Methoxy-3-iodo-5-trifluoromethylbenzoylguanidine hydrochloride] as the molecule, how does the IC50 read?
Its IC50 is 17 nM.

How did the IC50 turn out when `COc1cc(C)ccc1C(=O)N=C(N)N` [Example 5, 2-Methoxy-4-methylbenzoylguanidine hydrochloride] was run?
The IC50 was > 1000 nM.

With `COc1c(C(=O)N=C(N)N)cc(C(C)(C)C)cc1C(C)(C)C` [Example 6, 3,5-Bis-tert-butyl-2-methoxybenzoylguanidine hydrochloride] as the molecule, how does the IC50 read?
The IC50 was 1000 nM.

Which IC50 does the source give for `COc1cc(OC)c(C(F)(F)F)cc1C(=O)N=C(N)N` [Example 7, 2,4-Dimethoxy-5-trifluoromethylbenzoylguanidine hydrochloride] here?
Its IC50 is 200 nM.
